Experimental data reported in patent US12187716B2, “TYK2 kinase inhibitors” (SAREUM LIMITED, priority 2018, dated 2025).
pIC50: −log10 of the molar value. Where two headings read alike, the source gives them in different places.

What was measured:
[1] = molecular target: T1, CYP2C8 (Homo sapiens, UniProt P10632); assay: Cytochrome P450 inhibition assay, CYP2C8; format: in vitro ADME; conditions: pooled human liver microsomes, probe Amodiaquine
T1 construct: from tissue; host or cells: pooled human liver microsomes
T1 sequence (P10632 1-490): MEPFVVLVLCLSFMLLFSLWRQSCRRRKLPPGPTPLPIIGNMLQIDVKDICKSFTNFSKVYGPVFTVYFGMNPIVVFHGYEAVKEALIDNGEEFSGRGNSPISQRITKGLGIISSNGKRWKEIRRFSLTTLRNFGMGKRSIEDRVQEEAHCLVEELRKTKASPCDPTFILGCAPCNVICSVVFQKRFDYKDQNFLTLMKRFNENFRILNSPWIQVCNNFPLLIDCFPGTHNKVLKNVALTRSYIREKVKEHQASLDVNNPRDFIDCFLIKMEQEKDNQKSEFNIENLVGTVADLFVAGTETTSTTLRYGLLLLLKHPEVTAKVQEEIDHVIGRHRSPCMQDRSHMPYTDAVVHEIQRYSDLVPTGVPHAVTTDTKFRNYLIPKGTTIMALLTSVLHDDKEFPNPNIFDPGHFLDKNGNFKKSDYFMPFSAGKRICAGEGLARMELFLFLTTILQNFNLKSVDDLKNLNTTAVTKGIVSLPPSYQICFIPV
Method: The susceptibility of Compounds (2) and (3) to potential drug-drug interactions was tested by assaying their abilities to inhibit various cytochrome P450 isoforms. Prior art Compound B (see Example 3 above) was also tested as a comparative example. Test compounds, prepared and serially diluted in DMSO, were incubated at six concentrations (1% DMSO final) with pooled human liver microsomes in the presence of probe substrate for each isoform, and their effects on the metabolism of probe substrates determined. Incubations (in 96-well plates) were carried out at 37° C. in 0.1 M Tris buffer, pH 7.4, with reactions initiated by the addition of cofactor, NADPH (1 mM final concentration). At the specified times, reactions were terminated with acetonitrile containing an analytical internal standard, samples were centrifuged and the supernatant fractions were analysed for probe substrate metabolites by mass spectrometry (LC-MS/MS). The instrument responses were normalised to internal standard and compared to the appropriate solvent controls to determine the amount of metabolite formed from the probe substrates relative to these “uninhibited” controls. […] [table]

[2] = Hepatocyte stability assay, rat; format: in vitro ADME; conditions: male, Sprague-Dawley, pooled hepatocytes, 37° C.
Method: Test and control compounds were incubated with hepatocytes at 37° C. Aliquots were removed at 6 timepoints over a one hour period. Samples were centrifuged and the supernatant fractions analysed for parent compound by mass spectrometry (LC-MS/MS).
The amount of compound remaining (expressed as %) was determined from the MS response in each sample relative to that in the T=0 samples, and used to determine the half-life and intrinsic clearance of the compound.

[3] = tested on: pSTAT3 in HT29 cells; assay: pSTAT3 inhibition in response to IL-22 stimulation in serum starved HT29 cells; format: cell-based; conditions: for inhibition at 10 µM: HT-29, HT29 cells, 10 ng/ml human IL-22, 10 μM compound; for pIC50: Homo sapiens, HT-29, HT29 cells, 10 ng/ml human IL-22
Method: HT29 cells were serum starved overnight before the four test compounds were diluted to generate a 9-point semi-log dose dilution with a top concentration of 10 μM, plus vehicle control. HT29 cells were incubated with the test compounds for 20 min at 37° C. HT29 cells were incubated for a further 15 min with 10 ng/ml human IL-22 before cells were fixed with 4% PFA for 10 min, and 90% methanol for 30 min before being labelled with a phospho-STAT3Y705 antibody (CST #9145). Cells were rinsed three times using 0.5% BSA/PBS solution before being incubated with Alexa-488 anti-rabbit secondary antibodies.
Mean fluorescence intensity of phospho-STAT3 in single cells was analysed by flow cytometry using an Intellicyt iQue instrument and FlowJo software. The IC50 was determined using a four-parameter analysis following removal of background signal and normalisation to the DMSO control.

[4] = tested on: IL-17F production in Th17 cells; assay: IL-17F production inhibition in Th17 cells derived from human peripheral blood CD4CD45RO+ cells; format: cell-based
Method: (§1) Fresh human Peripheral blood CD4CD45RO+ cells were purchased commercially (Generon, UK); 3 separate vials from 3 different volunteers for experimental replicates. Cells were grown in T-cell medium (Thermo Fisher) containing 10 ng/ml recombinant human IL-1B (R&D Systems), IL-23 (R&D Systems), TGF-B1 (R&D Systems) and 50 ng/ml IL-6 (R&D Systems) together with anti-CD3/CD28 magnetic Dynabeads (Thermo Fisher). These were grown for 11 days to induce expansion of Th17 cells. Prior to plating for assays cells were grown overnight in T-cell medium supplemented with human serum (1%) overnight. Media was removed and replaced with unsupplemented RPMI for 4 h prior to assay.
To measure IL-17F levels, 200,000 cells were plated into a 96 well plate and preincubated with compounds for 30 minutes followed by stimulation with recombinant IL-23 at 6.25 ng/ml and recombinant human IL-1B at 0.1 ng/ml for 48 h. Supernatants were removed and IL-17F levels measured using a commercially available ELISA kit (Thermo Fisher; BMS2037-2).
(§2) ELISAs were carried out according to manufacturers instructions and absorbance read using a microplate reader (Thermo Fisher; Varioskan). Data was normalised to the response in untreated samples using the formula: % of control=((Stimulated sample Conc.−unstimulated sample Conc.)×100)/(Control stimulated Conc.−control unstimulated Conc.)
(§3) Graphpad Prism 8.1.0 was used to calculate I050 values using a Nonlinear 4 parameter logistic regression model (4PL).

[5] = tested on: STAT3 phosphorylation in Th17 cells; assay: Inhibition of STAT3 phosphorylation in Th17 cells derived from human peripheral blood CD4CD45RO+ cells; format: cell-based
Method: as §1
To measure pSTAT3 levels, 200,000 cells were plated into a 96 well plate and preincubated with compounds for 30 minutes followed by stimulation with recombinant IL-23 at 12.5 ng/ml for 15 minutes then lysed using cell lysis buffer. pSTAT3 levels in the lysates were measured using a commercially available ELISA kit (Thermo Fisher; 85-86102-11).
as §2, §3

[6] = molecular target: TYK2 (Homo sapiens, UniProt P29597); assay: TYK2 kinase inhibition assay (33P-ATP filter binding, Reaction Biology)
TYK2, sequence (P29597 833-1187): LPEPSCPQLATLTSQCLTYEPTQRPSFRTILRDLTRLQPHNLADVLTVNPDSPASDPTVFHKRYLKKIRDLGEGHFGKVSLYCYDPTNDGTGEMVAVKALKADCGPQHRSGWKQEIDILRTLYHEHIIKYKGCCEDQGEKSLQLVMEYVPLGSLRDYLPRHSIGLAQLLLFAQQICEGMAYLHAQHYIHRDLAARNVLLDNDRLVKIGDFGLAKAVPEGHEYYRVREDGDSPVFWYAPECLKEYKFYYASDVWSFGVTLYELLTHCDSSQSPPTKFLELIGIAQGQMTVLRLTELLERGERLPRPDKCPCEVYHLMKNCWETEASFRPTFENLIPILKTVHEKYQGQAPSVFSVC

[7] = IL-23 6.25 ng/ml + IL-1B 0.1 ng/ml, 48 h, Donor 1, read-out: IL17-F Production Inhibition IC50, Donor 1
[8] = IL-23 6.25 ng/ml + IL-1B 0.1 ng/ml, 48 h, Donor 2, read-out: IL17-F Production Inhibition IC50, Donor 2
[9] = IL-23 6.25 ng/ml + IL-1B 0.1 ng/ml, 48 h, Donor 3, read-out: IL17-F Production Inhibition IC50, Donor 3
[10] = average of 3 donors, read-out: IL17-F Production Inhibition IC50, Average
[11] = 0.25 h, IL-23 12.5 ng/ml, 15 minutes, Donor 1, read-out: Inhibition of STAT3 phosphorylation IC50, Donor 1
[12] = 0.25 h, IL-23 12.5 ng/ml, 15 minutes, Donor 2, read-out: Inhibition of STAT3 phosphorylation IC50, Donor 2
[13] = 0.25 h, IL-23 12.5 ng/ml, 15 minutes, Donor 3, read-out: Inhibition of STAT3 phosphorylation IC50, Donor 3
[14] = average of 3 donors, read-out: Inhibition of STAT3 phosphorylation IC50, Average

SMILES	pIC50 [1]	hepatocyte CLint [2]	inhibition at 10 µM [3]	pIC50 [3]	pIC50 [4, 7]	pIC50 [4, 8]	pIC50 [4, 9]	pIC50 [4, 10]	pIC50 [5, 11]	pIC50 [5, 12]	pIC50 [5, 13]	pIC50 [5, 14]	pIC50 [6]	half-life ([2]; read-out: Rat T1/2)	Selectivity v TYK2: TYK2 ([6]; ratio of IC50 to TYK2 IC50)
NC(=O)c1nc(-c2c(Cl)cccc2Cl)oc1Nc1ccc(C(=O)N2CCOCC2)cc1 [Comparative Compound B, 2-(2,6-dichloro-phenyl)-5-[4-(morpholine-4-carbonyl)-phenylamino]-oxazole-4-carboxylic acid amide, reference compound]	< 5.09	104 µL/min/1e6 cells	97.9%	> 7.00	6.61	6.66	6.83	6.69	6.95	7.77	7.27	7.21	8.29		
NC(=O)c1nc(-c2c(Cl)cccc2Cl)oc1Nc1ccc(C(=O)N2CCS(=O)(=O)CC2)cc1 [Compound (2)]	< 4.52	50 µL/min/1e6 cells	95.9%		6.93	6.87	7.19	6.98	7.16	7.54	7.26	7.29	8.72		
NC(=O)c1nc(-c2c(Cl)cccc2Cl)oc1Nc1ccc(C(=O)N2CCS(=O)(=O)CC2)c(F)c1 [Compound (3)]	< 4.52	53.8 µL/min/1e6 cells	95.9%	6.64	7.24	6.26	6.98	6.63	6.80	7.54	7.04	7.04	8.33	28.5 min	1
